Laboratory results as given in ChEMBL document CHEMBL1201861, “Genomics of Drug Sensitity in Cancer screening data, Wellcome Trust Sanger Institute”.

Columns and labels:
Format in all cases: functional, cell-based
SU-DHL-1 = assay: SANGER: Inhibition of human SU-DHL-1 cell growth in a cell viability assay.
NCI-H522 = assay: cells; settings: Homo sapiens;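 further: cell viability assay measuring growth inhibition of human NCI-H522 cells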
Description: SANGER: Inhibition of human NCI-H522 cell growth in a cell viability assay.

BEN = assay: cells; settings: Homo sapiens;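 further: growth inhibition of the BEN cell line, read out with a cell viability assay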
Description: SANGER: Inhibition of human BEN cell growth in a cell viability assay.

BFTC-909 = assay: cells; settings: Homo sapiens
Description: SANGER: Inhibition of human BFTC-909 cell growth in a cell viability assay.

RPMI-7951 = assay: cells; settings: Homo sapiens
Description: SANGER: Inhibition of human RPMI-7951 cell growth in a cell viability assay.

LoVo = assay: cells; settings: Homo sapiens;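 further: growth inhibition of human LoVo cells, read out with a cell viability assay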
Description: SANGER: Inhibition of human LoVo cell growth in a cell viability assay.

ME-180 = assay: cells; settings: Homo sapiens;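 further: cell viability assay measuring growth inhibition of ME-180 cells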
Description: SANGER: Inhibition of human ME-180 cell growth in a cell viability assay.

MDA-MB-361 = assay: cells; settings: Homo sapiens
NCI-H1963 = assay: cells; settings: Homo sapiens;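 further: cell growth inhibition of the human line, determined with a cell viability assay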
Description: SANGER: Inhibition of human NCI-H1963 cell growth in a cell viability assay.

SW1463 = assay: cells; settings: Homo sapiens;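 further: growth inhibition of SW1463 cells, determined with a cell viability assay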
Description: SANGER: Inhibition of human SW1463 cell growth in a cell viability assay.

NCI-H292 = assay: cells; settings: Homo sapiens;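 further: growth inhibition of NCI-H292 cells, read out with a cell viability assay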
Description: SANGER: Inhibition of human NCI-H292 cell growth in a cell viability assay.

MONO-MAC-6 = assay: cells; settings: Homo sapiens;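 further: cell viability assay measuring growth inhibition of human MONO-MAC-6 cells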
Description: SANGER: Inhibition of human MONO-MAC-6 cell growth in a cell viability assay.

SUP-T1 = assay: cells; settings: Homo sapiens;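 further: growth inhibition of human SUP-T1 cells, read out as cell viability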
Description: SANGER: Inhibition of human SUP-T1 cell growth in a cell viability assay.

639-V = assay: cells; settings: Homo sapiens;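 further: growth inhibition of 639-V cells, read out with a cell viability assay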
Description: SANGER: Inhibition of human 639-V cell growth in a cell viability assay.

NCI-H2087 = assay: cells; settings: Homo sapiens;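 further: growth inhibition determined with a cell viability readout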
Description: SANGER: Inhibition of human NCI-H2087 cell growth in a cell viability assay.

5637 = assay: cells; settings: Homo sapiens
Description: SANGER: Inhibition of human 5637 cell growth in a cell viability assay.

PC-14 = assay: cells; settings: Homo sapiens;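 further: cell viability assay measuring inhibition of PC-14 cell growth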
Description: SANGER: Inhibition of human PC-14 cell growth in a cell viability assay.

A 172 = assay: cells; settings: Homo sapiens;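 further: growth inhibition of A172 cells, measured with a cell viability readout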
Description: SANGER: Inhibition of human A172 cell growth in a cell viability assay.

NCI-H1437 = assay: cells; settings: Homo sapiens;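 further: growth inhibition of human NCI-H1437 cells, read out by a cell viability assay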
Description: SANGER: Inhibition of human NCI-H1437 cell growth in a cell viability assay.

SW837 = assay: cells; settings: Homo sapiens;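 further: growth inhibition of SW837 cells, determined with a cell viability assay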
Description: SANGER: Inhibition of human SW837 cell growth in a cell viability assay.

KP-N-YN = assay: cells; settings: Homo sapiens;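 further: growth inhibition of KP-N-YN cells, read out with a cell viability assay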
Description: SANGER: Inhibition of human KP-N-YN cell growth in a cell viability assay.

KYSE-70 cell line = assay: cells; settings: Homo sapiens;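 further: cell viability assay read-out, with IC50 expressing suppression of KYSE-70 cell growth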
Description: SANGER: Inhibition of human KYSE-70 cell growth in a cell viability assay.

IMR-5 = assay: cells; settings: Homo sapiens;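 further: growth inhibition of human IMR-5 cells, read out with a cell viability assay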
Description: SANGER: Inhibition of human IMR-5 cell growth in a cell viability assay.

8505C = assay: cells; settings: Homo sapiens
Description: SANGER: Inhibition of human 8505C cell growth in a cell viability assay.

RD = assay: cells; settings: Homo sapiens
Description: SANGER: Inhibition of human RD cell growth in a cell viability assay.

MFE-280 = assay: cells; settings: Homo sapiens;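 further: growth inhibition of MFE-280 cells, determined with a cell viability readout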
Description: SANGER: Inhibition of human MFE-280 cell growth in a cell viability assay.

KYSE-180 = assay: cells; settings: Homo sapiens;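 further: growth inhibition of KYSE-180 cells, read out with a cell viability assay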
Description: SANGER: Inhibition of human KYSE-180 cell growth in a cell viability assay.

MDA-MB-415 = assay: cells; settings: Homo sapiens
NCI-H1703 = assay: cells; settings: Homo sapiens;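 further: growth inhibition of NCI-H1703 cells, read out via a cell viability assay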
Description: SANGER: Inhibition of human NCI-H1703 cell growth in a cell viability assay.

NCI-H810 = assay: cells; settings: Homo sapiens;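 further: IC50 reflects inhibition of cancer cell line growth, read out with a cell viability assay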
Description: SANGER: Inhibition of human NCI-H810 cell growth in a cell viability assay.

LCLC-103H cell line = assay: cells; settings: Homo sapiens
Description: SANGER: Inhibition of human LCLC-103H cell growth in a cell viability assay.

HCC1395 = assay: cells; settings: Homo sapiens;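 further: growth inhibition of HCC1395 cells, read out by a cell viability assay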
Description: SANGER: Inhibition of human HCC1395 cell growth in a cell viability assay.

SW-620 = assay: cells; settings: Homo sapiens;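 further: growth inhibition of human SW-620 cells, measured by a cell viability assay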
Description: SANGER: Inhibition of human SW620 cell growth in a cell viability assay.

Calu-3 = assay: cells; settings: Homo sapiens;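 further: growth inhibition of human Calu-3 cells, determined with a cell viability assay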
Description: SANGER: Inhibition of human Calu-3 cell growth in a cell viability assay.

KARPAS-422 = assay: cells; settings: Homo sapiens
Description: SANGER: Inhibition of human KARPAS-422 cell growth in a cell viability assay.

SK-LU-1 = assay: cells; settings: Homo sapiens;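 further: cell viability assay measuring growth inhibition of human SK-LU-1 cells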
Description: SANGER: Inhibition of human SK-LU-1 cell growth in a cell viability assay.

BOKU = assay: cells; settings: Homo sapiens;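 further: growth inhibition of the human BOKU cell line, read out by a cell viability assay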
Description: SANGER: Inhibition of human BOKU cell growth in a cell viability assay.

OE33 = assay: cells; settings: Homo sapiens;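 further: growth inhibition of human OE33 cells, measured by a cell viability assay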
Description: SANGER: Inhibition of human OE33 cell growth in a cell viability assay.

AGS = assay: cells; settings: Homo sapiens;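 further: growth inhibition of AGS cells, determined with a cell viability assay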
Description: SANGER: Inhibition of human AGS cell growth in a cell viability assay.

NCI-H2452 = assay: cells; settings: Homo sapiens;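 further: growth inhibition of NCI-H2452 cells, read out with a cell viability assay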
Description: SANGER: Inhibition of human NCI-H2452 cell growth in a cell viability assay.

ABC-1 = assay: cells; settings: Homo sapiens;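 further: growth inhibition of human ABC-1 cells, read out by a cell viability assay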
Description: SANGER: Inhibition of human ABC-1 cell growth in a cell viability assay.

EFO-27 = assay: cells; settings: Homo sapiens;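 further: growth inhibition of EFO-27 cells, read out with a cell viability assay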
Description: SANGER: Inhibition of human EFO-27 cell growth in a cell viability assay.

IM-9 = assay: SANGER: Inhibition of human IM-9 cell growth in a cell viability assay.
TYK-nu = assay: cells; settings: Homo sapiens;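 further: growth inhibition of human TYK-nu cells, read out by a cell viability assay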
Description: SANGER: Inhibition of human TYK-nu cell growth in a cell viability assay.

RT-112 = assay: cells; settings: Homo sapiens
Description: SANGER: Inhibition of human RT-112 cell growth in a cell viability assay.

NCI-H2122 = assay: cells; settings: Homo sapiens;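 further: growth inhibition of the cells, read out with a cell viability assay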
Description: SANGER: Inhibition of human NCI-H2122 cell growth in a cell viability assay.

HT55 = assay: cells; settings: Homo sapiens;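 further: cell viability readout measuring growth inhibition of human HT55 cells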
Description: SANGER: Inhibition of human HT55 cell growth in a cell viability assay.

D-392MG = assay: cells; settings: Homo sapiens
Ca9-22 = assay: cells; settings: Homo sapiens;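 further: growth inhibition of Ca9-22 cells, read out with a cell viability assay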
Description: SANGER: Inhibition of human Ca9-22 cell growth in a cell viability assay.

HO-1-N-1 = assay: cells; settings: Homo sapiens;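 further: growth inhibition of human HO-1-N-1 cells, read out with a cell viability assay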
Description: SANGER: Inhibition of human HO-1-N-1 cell growth in a cell viability assay.

SCC-4 = assay: cells; settings: Homo sapiens;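 further: growth inhibition of human SCC-4 cells, read out as cell viability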
Description: SANGER: Inhibition of human SCC-4 cell growth in a cell viability assay.

LP-1 = assay: cells; settings: Homo sapiens;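 further: growth inhibition of human LP-1 cells, with the read-out taken from a cell viability assay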
Description: SANGER: Inhibition of human LP-1 cell growth in a cell viability assay.

BT-20 = assay: cells; settings: Homo sapiens;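 further: cell viability assay measuring suppression of growth in human BT-20 cells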
Description: SANGER: Inhibition of human BT-20 cell growth in a cell viability assay.

LU-165 = assay: cells; settings: Homo sapiens
Description: SANGER: Inhibition of human LU-165 cell growth in a cell viability assay.

MKN-28 = assay: cells; settings: Homo sapiens;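 further: cell viability assay read-out, IC50 reflects suppression of growth of human MKN-28 cells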
Description: SANGER: Inhibition of human MKN28 cell growth in a cell viability assay.

HPAF-II = assay: cells; settings: Homo sapiens;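 further: growth inhibition of HPAF-II cells, read out with a cell viability assay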
Description: SANGER: Inhibition of human HPAF-II cell growth in a cell viability assay.

NCI-H358 = assay: cells; settings: Homo sapiens;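 further: growth inhibition of NCI-H358 human cells, read out with a cell viability assay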
Description: SANGER: Inhibition of human NCI-H358 cell growth in a cell viability assay.

SF-295 = assay: cells; settings: Homo sapiens;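 further: growth inhibition of SF-295 cells, read out with a cell viability assay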
Description: SANGER: Inhibition of human SF295 cell growth in a cell viability assay.

NCI-H1755 = assay: cells; settings: Homo sapiens;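 further: cell viability readout used to measure growth inhibition of NCI-H1755 cells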
Description: SANGER: Inhibition of human NCI-H1755 cell growth in a cell viability assay.

SW948 = assay: cells; settings: Homo sapiens;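 further: growth inhibition of SW948 cells, read out with a cell viability assay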
Description: SANGER: Inhibition of human SW948 cell growth in a cell viability assay.

NCI-H719 = assay: cells; settings: Homo sapiens;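 further: growth inhibition of the cultured cell line, read out with a viability assay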
Description: SANGER: Inhibition of human NCI-H719 cell growth in a cell viability assay.

D-542MG = assay: cells; settings: Homo sapiens
Description: SANGER: Inhibition of human D-542MG cell growth in a cell viability assay.

UACC-62 = assay: cells; settings: Homo sapiens;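 further: growth inhibition of human UACC-62 cells, read out by a cell viability assay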
Description: SANGER: Inhibition of human UACC-62 cell growth in a cell viability assay.

Measured: IC50

CC(O)(CS(=O)(=O)c1ccc(F)cc1)C(=O)Nc1ccc(C#N)c(C(F)(F)F)c1 (stereo not drawn) [BICALUTAMIDE]
> 1020 nM: all assays above
